# Measured values: patent US12544375B2, “Small molecule therapeutic for parkinson's disease paired with a biomarker of therapeutic activity” (The Board of Trustees of the Leland Stanford Junior …, priority 2019, dated 2026)
# Tests used:
# Miro1 [1] = biological target: T1, Miro1 (Homo sapiens, UniProt Q8IXI2); assay: Ubiquitination of immunoprecipitated Miro1 after CCCP 1 hr; assay type: cell-based; details: PD-2 fibroblasts, with or without Miro1 Reducer
# T1 construct: We applied compound 3 to fibroblasts from one sporadic PD patient (PD-2); endogenous in cells; host or cells: human skin fibroblasts (PD-2, Healthy-1 and further PD/control lines)
# T1 sequence (Q8IXI2 whole entry): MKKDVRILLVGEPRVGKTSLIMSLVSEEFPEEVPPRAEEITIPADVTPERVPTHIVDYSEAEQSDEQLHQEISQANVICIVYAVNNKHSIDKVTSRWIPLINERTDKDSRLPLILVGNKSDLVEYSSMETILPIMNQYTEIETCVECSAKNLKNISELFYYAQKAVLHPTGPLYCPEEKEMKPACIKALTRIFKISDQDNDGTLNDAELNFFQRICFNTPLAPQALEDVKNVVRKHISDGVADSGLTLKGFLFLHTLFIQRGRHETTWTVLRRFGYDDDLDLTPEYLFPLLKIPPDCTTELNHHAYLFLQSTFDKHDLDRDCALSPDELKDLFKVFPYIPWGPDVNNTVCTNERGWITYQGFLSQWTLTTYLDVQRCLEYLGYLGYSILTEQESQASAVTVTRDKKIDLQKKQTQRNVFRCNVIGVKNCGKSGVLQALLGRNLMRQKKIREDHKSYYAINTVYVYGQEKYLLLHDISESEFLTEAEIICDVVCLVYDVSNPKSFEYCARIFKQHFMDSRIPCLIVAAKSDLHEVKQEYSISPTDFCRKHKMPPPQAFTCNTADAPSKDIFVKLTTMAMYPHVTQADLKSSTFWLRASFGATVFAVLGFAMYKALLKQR
# Protocol: (§1) FIG. 8. Related to FIG. 2-4. Miro1 Reducer in Human Cell and Fly Models. (A) Fibroblasts from Healthy-1 and PD-2 were treated, lysed, and blotted as indicated. Band intensities are normalized to those of GAPDH from the same blots and compared to “Healthy-1, no treatment”. n=4 independent experiments. (B) Fibroblasts from PD-2 were treated and immunostained as indicated. The intensity was quantified for each cell across 264-320 cells from 3 independent experiments, compared to “no treatment”. (C) Fibroblasts were treated, immunoprecipitated (IPed) with anti-Miro1, and blotted as indicated. Similar results were observed twice. (D) Similar as in (C), fibroblasts were treated as indicated, and IPed with anti-Miro1. The GTPase activity of the IPed Miro1 protein was measured as described in Method. […] The MitoSox intensity was quantified for each cell across 106-161 cells from 3 coverslips. […] The TMRM intensity was measured for each cell across 48-60 cells from 3 independent experiments, and expressed as a fraction of the mean of “Healthy-1, no treatment”. […] The movement (the intensity of non-yellow) was quantified for each cell as described in (Tsai et al., 2014) across 22-31 cells from 3 transfections. […] (1) Left: The percentage of TH-positive iPSC-derived neurons out of total cells (Dapi-positive) is calculated after immunocytochemistry under 20× as described in FIG. 3. […]
# Miro1 [2] = biological target: T1, Miro1; assay: GTPase activity of Miro1 IPed from fibroblasts; assay type: biochemical; details: PD-2 fibroblasts, basal or depolarized condition
# Protocol: as §1
# [3] = test system: healthy-1 or PD-2 fibroblasts; assay: Mitochondrial morphology and membrane potential, TMRM staining; assay type: cell-based, human; details: 10 μM for 30 hrs
# Protocol: as §1
# Miro1 mRNA = Miro1 mRNA expression by qPCR in fibroblasts; assay type: cell-based, human
# Protocol: FIG. 8. Related to FIG. 2-4. Miro1 Reducer in Human Cell and Fly Models. (A) Fibroblasts from Healthy-1 and PD-2 were treated, lysed, and blotted as indicated. Band intensities are normalized to those of GAPDH from the same blots and compared to “Healthy-1, no treatment”. n=4 independent experiments. (B) Fibroblasts from PD-2 were treated and immunostained as indicated. The intensity was quantified for each cell across 264-320 cells from 3 independent experiments, compared to “no treatment”. (C) Fibroblasts were treated, immunoprecipitated (IPed) with anti-Miro1, and blotted as indicated. Similar results were observed twice. […] The GTPase activity of the IPed Miro1 protein was measured as described in Method. […] The MitoSox intensity was quantified for each cell across 106-161 cells from 3 coverslips. […] The TMRM intensity was measured for each cell across 48-60 cells from 3 independent experiments, and expressed as a fraction of the mean of “Healthy-1, no treatment”. […] The movement (the intensity of non-yellow) was quantified for each cell as described in (Tsai et al., 2014) across 22-31 cells from 3 transfections. […] (1) Left: The percentage of TH-positive iPSC-derived neurons out of total cells (Dapi-positive) is calculated after immunocytochemistry under 20× as described in FIG. 3. […]
# PCR. […] Concentrations of total RNA were measured using a Nano Drop. […]
structure (smiles),measurement,setting,value
O=C(Nc1ccc(Nc2cc(-n3ccnc3)ncn2)cc1)Nc1cccc(F)c1 [Miro1 Reducer],depolarization-elicited increase of ubiquitination of IPed Miro1,Miro1 [1],did not occur
same,GTPase activity of IPed Miro1,Miro1 [2],did not affect
same,general mitochondrial morphology and ΔΨm (TMRM),[3],did not affect
same,Miro1 mRNA expression (qPCR),Miro1 mRNA,nor did it change Miro1 mRNA expression
